From patent publication US20210181109A1 (FUJIFILM Corporation, priority 2018, published 2021)

Key:
[1] = NAC depletion percent, HPLC-fluorescence detection
Experimental: (§1) 1) To a 50 mL vessel, 11.6 mg (±0.1 mg) of NAC is weighed; to this, a 25 mL measuring pipet is used to add 20 mL of 100 mmol/L phosphate buffer (pH: 8.0); and the content is gently stirred using a test tube mixer to achieve dissolution (2 mmol/L). 2) To a 500 mL vessel, 149.5 mL of this buffer is added using a 50 mL measuring pipet; to this, 0.5 mL of the above-described 2 mmol/L NAC solution is added; and the content is mixed by inversion to achieve 300-fold dilution (6.667 μmon).
(§2) The test substance undiluted solution is defined as an “undiluted solution”, and used. Incidentally, this “undiluted solution” may be appropriately diluted to, for example, 1/10, 1/100, or 1/1000, using an appropriate solvent, and the resultant solution may be used.
(§3) Subsequently, the solution having the maximum dissolution concentration is defined as an “undiluted solution”, and tested. Incidentally, this “undiluted solution” may be appropriately diluted to, for example, 1/10, 1/100, or 1/1000, using an appropriate solvent, and the resultant solution may be used.
(§4) The test substance is prepared at 1 mmol/L in any of solvents that are water, acetonitrile, acetone, and a 5 mass % dimethyl sulfoxide (DMSO)/acetonitrile solution and used as a test substance solution. As the solvent, a solvent in which the test substance dissolves at 1 mmol/L is used; when the test substance is soluble in a plurality of solvents, the solvent is selected in the following order of decreasing precedence: water, acetonitrile, acetone, and 5 mass % DMSO/acetonitrile.
(§5) Test substance solutions are prepared on a 96-well plate (U96 PP-0.5 ML NATURAL, Thermo Fisher Scientific Inc. (NUNC)) mainly using a 12-channel pipette, and a reagent is added in accordance with the following formula.
(§6) Nucleophilic reagent (NAC and NAL): 150 μL
(§7) Test substance solution: 50 μL
(§8) The plate is tightly sealed using a plate sealing (Resistant embossed seal, SHIMADZU GLC Ltd.), and stirred using a plate shaker (Titramax 100, Heidolph Instruments GmbH & CO. KG). The plate is subjected to spinning down using a centrifuge, and then to incubation at 25° C., for 24 hours, in a light-shielded state.
(§9) After the incubation for 24 hours, the plate sealing is removed; to each sample, 50 µL of the reaction stopping solution is added to stop the reaction.
(§10) The HPLC measurement conditions for the nucleophilic reagents are as follows.
(§11) From the average values (each, n=3) of peak areas of the post-reaction unreacted NAC or NAL and the blank-test (after performing the reaction step without addition of the test substances) NAC or NAL, the following formula is used to calculate the depletion percent of NAC or NAL.
(§12) NAC depletion percent (% depletion)=[1−(Average value of peak areas of post-reaction unreacted NAC/Average value of peak areas of blank-test (after performing the reaction step without addition of the test substances) NAC)]×100
(§13) The average value of peak areas of the post-reaction unreacted NAC is the average value of areas obtained by measuring three times post-reaction unreacted NAC. The average value of peak areas of blank-test (after performing the reaction step without addition of the test substances) NAC is the average value of areas obtained by measuring three times blank-test (after performing the reaction step without addition of the test substances) NAC.
(§14) The reactions were each performed on a 96-well plate, and the number of samples of each case was set to n=3. In addition, as controls, reaction solutions including the solvent alone were prepared. The reaction solutions were prepared so as to have a NAC or NAL concentration of 5 μmon. To the reaction solutions after the lapse of 24 hours, a trifluoroacetic acid (TFA) aqueous solution was added such that the final concentration became 0.5% (v/v) TFA. Subsequently, HPLC was performed for measurements by two detection methods that were light absorption detection using a photodiode array (PDA) detector, and fluorescence detection using a fluorescence detector.

[2] = NAL depletion percent, HPLC-fluorescence detection
Experimental: (§15) 1) To a 50 mL vessel, 12.6 mg (±0.1 mg) of NAL is weighed; to this, a 25 mL measuring pipet is used to add 20 mL of 100 mmol/L phosphate buffer (pH: 10.2); and the content is gently stirred using a test tube mixture to achieve dissolution (2 mmol/L NAL solution). 2) To a 500 mL vessel, 149.5 mL of this buffer is added using a 50 mL measuring pipet; to this, 0.5 mL of the above-described 2 mmol/L NAL solution is added; and the content is mixed by inversion to achieve 300-fold dilution (6.667 μmol/L).
as §2, §3, §4, §5, §6, §7, §8, §9, §10, §11
(§16) NAL depletion percent (% depletion)=[1−(Average value of peak areas of post-reaction unreacted NAL/Average value of peak areas of blank-test (after performing the reaction step without addition of the test substances) NAL)]×100
(§17) The average value of peak areas of post-reaction unreacted NAL is the average value of areas obtained by measuring three times post-reaction unreacted NAL. The average value of peak areas of blank-test (after performing the reaction step without addition of the test substances) NAL is the average value of areas obtained by measuring three times blank-test (after performing the reaction step without addition of the test substances) NAL.
as §14

[3] = Average score of NAC and NAL depletion and prediction of skin allergenicity, fluorescence method; conditions: for Average score: single substance, test substance solution 1 mmol/L, fluorescence method
Experimental: (§18) The average value (Average Score) of NAC and NAL depletion percents is calculated. In the resultant value, the second decimal place is rounded off.
(§19) Average value (Average Score) of NAC and NAL depletion percents=(NAC depletion percent+NAL depletion percent)/2
(§20) The depletion percent of at least one of NAC or NAL or the average score of the depletion percents of NAC and NAL is calculated, and whether or not the test substances are “allergenic substances” or “non-allergenic substances” is determined:
(§21) (1) in a case of performing evaluation based on the average value of the depletion percent of NAC and the depletion percent of NAL,
(§22) In the following Tables, S represents as being an allergenic substance and NS represents as being a non-allergenic substance.

[4] = NAC depletion percent, HPLC-UV detection (281 nm); conditions: Reference (UV method)
Experimental: as §1, §2, §3, §4, §5, §6, §7, §8, §9, §10, §11, §12, §13, §14

[5] = NAL depletion percent, HPLC-UV detection (281 nm); conditions: Reference (UV method)
Experimental: as §15, §2, §3, §4, §5, §6, §7, §8, §9, §10, §11, §16, §17, §14

[6] = Average score of NAC and NAL depletion and prediction of skin allergenicity, UV method; conditions: for Average score: single substance, test substance solution 1 mmol/L
Experimental: as §18, §19, §20, §21, §22

[7] = Fluorescence method, non-allergenic substance
[8] = Fluorescence method, skin allergenicity prediction
[9] = Reference (UV method), skin allergenicity prediction
[10] = single substance, test substance solution 1 mmol/L, fluorescence method
[11] = single substance, test substance solution 1 mmol/L

Row | SMILES | NAC depletion (%) [1, 7] | NAL depletion (%) [2, 7] | Prediction result [3, 8] | NAC depletion (%) ([4]; non-allergenic substance) | NAL depletion (%) ([5]; non-allergenic substance) | Prediction result [6, 9] | NAC depletion (%) [1, 10] | NAL depletion (%) [2, 10] | Prediction result [3] | Average score [3] | NAC depletion (%) [4, 11] | NAL depletion (%) [5, 11] | Prediction result [6] | Average score ([6]; Reference (UV method))
1 | CCOC(=O)c1ccccc1C(=O)OCC [Diethyl phthalate] | 0.0% | 0.2% | NS (NS represents as being a non-allergenic substance) | 0.0% | 1.7% | NS (NS represents as being a non-allergenic substance) |  |  |  |  |  |  |  | 
2 | Cc1ccc2oc(=O)ccc2c1 [6-Methylcoumarin] | 1.3% | 0.1% | NS (NS represents as being a non-allergenic substance) | 0.0% | 1.0% | NS (NS represents as being a non-allergenic substance) |  |  |  |  |  |  |  | 
3 | CC(=O)C1CCCCC1=O (centres unmarked) [2-Acetylcyclohexanone] | 3.5% | 0.0% | NS (NS represents as being a non-allergenic substance) | 1.3% | 0.3% | NS (NS represents as being a non-allergenic substance) |  |  |  |  |  |  |  | 
4 | OCC(O)CO [Glycerol] | 0.2% | 0.0% | NS (NS represents as being a non-allergenic substance) | 0.3% | 0.7% | NS (NS represents as being a non-allergenic substance) |  |  |  |  |  |  |  | 
5 | O=c1ccc2ccccc2o1 [Coumarin] | 1.2% | 0.4% | NS (NS represents as being a non-allergenic substance) | 0.5% | 3.9% | NS (NS represents as being a non-allergenic substance) |  |  |  |  |  |  |  | 
6 | Nc1ccc(S(N)(=O)=O)cc1 [Sulfanilamide] | 0.5% | 3.6% | NS (NS represents as being a non-allergenic substance) | 0.0% | 1.4% | NS (NS represents as being a non-allergenic substance) |  |  |  |  |  |  |  | 
7 | CC(C)=CCCC(C)=CCCC(C)=CC=O [Farnesal] |  |  |  |  |  |  | 22.4% | 4.9% | S (key: S represents as being an allergenic substance; NS represents as being a non-allergenic substance) | 13.6% | 17.2% | 8.8% | S (key: S represents as being an allergenic substance; NS represents as being a non-allergenic substance) | 13.0%
8 | CCCCBr [1-Bromobutane] | 0.0% | 0.0% | NS (NS represents as being a non-allergenic substance) | 0.1% | 2.4% | NS (NS represents as being a non-allergenic substance) |  |  |  |  |  |  |  | 
9 | COC(=O)c1ccc(O)cc1 [Methylparaben] | 0.7% | 4.7% | NS (NS represents as being a non-allergenic substance) | 0.1% | 1.3% | NS (NS represents as being a non-allergenic substance) |  |  |  |  |  |  |  | 
10 | CCCCCCCCCCCCCC(=O)OC(C)C [Isopropyl myristate] | 0.4% | 5.8% | NS (NS represents as being a non-allergenic substance) | 0.0% | 1.8% | NS (NS represents as being a non-allergenic substance) |  |  |  |  |  |  |  | 
11 | O=C(OCc1ccccc1)c1ccccc1 [Benzyl benzoate] |  |  |  |  |  |  | 0.0% | 0.3% |  | 0.1% | 0.0% | 2.8% |  | 1.4%
12 | COc1ccc(C(C)=O)cc1 [4′-Methoxyacetophenone] | 1.2% | 0.0% | NS (NS represents as being a non-allergenic substance) | 3.3% | 3.3% | NS (NS represents as being a non-allergenic substance) |  |  |  |  |  |  |  | 
13 | COc1cc(C=O)ccc1O [Vanillin] | 2.0% | 0.0% | NS (NS represents as being a non-allergenic substance) | 1.5% | 1.9% | NS (NS represents as being a non-allergenic substance) |  |  |  |  |  |  |  | 
14 | CC(O)CO (centres unmarked) [Propylene glycol] | 0.7% | 5.0% | NS (NS represents as being a non-allergenic substance) | 0.1% | 2.2% | NS (NS represents as being a non-allergenic substance) |  |  |  |  |  |  |  | 
